Data reported in patent US6656509B1, “Combination of selenium-containing compounds with cytostatics” (Biosyn Arzneimittel GmbH, priority 1998, dated 2003).

Tests used:
[1] = tested on: pancreatic cancer xenograft PAXF 546; test: clonogenic assay, single agents and combination studies; type: cell-based, human; conditions: observed; X261, X295
Procedure: (§1) The cell mixture was passed through sieves of 200 μm and 50 μm mesh size and washed thereafter twice with PBS. The percentage of viable cells was determined in a Neubauer counting chamber using trypan blue exclusion.
(§2) 8×10^3 to 1,6×10^4 cells were added to 0.2 ml of the same culture medium together with 0.4% agar and placed in already coated 24-multiwell dishes. Test substances were applied by continuous exposure (drug overlay) in 0.2 ml medium. Every dish included six control wells containing the vehicle- and drug-treated groups in triplicate at six concentrations.
(§3) Cultures were incubated at 37° and 7% CO2 in a humidified atmosphere for 5 to 15 days (depending on the doubling time of the tumor stem cells) and monitored for colony growth using an inverted microscope. Within this period, in vitro tumor growth led to the formation of colonies with a diameter of ≧50 μm. At the time of maximum colony formation counts were performed with an automatic image analysis system (OMNICOM Fas IV, Biosys GmbH). […] Drug effects were expressed in terms of the percentage of surviving cells, obtained by comparison of the mean number of colonies in the treated plates with the mean colony count of the untreated controls (test-versus-control-group value, T/C=colony countTreated Group*100/colony countControl Group).
(§4) Coefficient of variation in the control group ≦50%. IC50 and IC70 values were determined by plotting compound concentration versus cell survival rate. Mean IC50 and IC70 values were calculated according to the formula: [formula]
(§5) with x=specific tumor xenograft and n=total number of tumor xenografts studied. If an IC50 or IC70 value could not be determined within the examined dose range, the lowest or highest concentration studied was used for the calculation.
(§6) Each experiment included the chemotherapeutic agents in 6 concentrations, selenium in 2 concentrations (3 and 30 μM), and the combination of all doses with selenium at 3 and 30 μM. All compounds and combinations were studied in triplicates. […] Each experiment was performed twice.
(§7) T/Cexpectd(A+B)=T/C(A)×T/C(B)/100
(§8) For a zero-interactive drug combination (additivity of drug effects) T/Cexpected(A+B)[…]T/Cobserved(A+B). A drug combination is synergistic if T/Cobserved(A+B) is statistically significant[…]T/Cexpected(A+B). Statistical significance was determined by the T-test.

[2] = tested on: pancreatic cancer xenograft PAXF 736; test: as above; type: cell-based, human; conditions: (X261, X295)
Procedure: as §1, §2, §3, §4, §5, §6, §7, §8

SMILES: CO[C@@]12[C@H](COC(N)=O)C3=C(C(=O)C(C)=C(N)C3=O)N1C[C@@H]1N[C@@H]12 [Mitomycin C]
- T/C in % at a mitomycin C concentration (μM) [1]: 87 ± 11%
- T/C in % at a mitomycin C concentration (μM) of 1.0 [1]: 5 ± 2%
- T/C in % at a mitomycin C concentration (μM) of 1 × 10^−1 [1]: 57 ± 8%
- T/C in % at a mitomycin C concentration (μM) of 1 × 10^−2 [1]: 80± 12%
- T/C in % at a mitomycin C concentration (μM) of 1 × 10^−3 [1]: 70 ± 13%
- T/C in % at a mitomycin C concentration (μM) of 1 × 10^−4 [1]: 70 ± 10%
- T/C in % at a mitomycin C concentration (μM) of 1 × 10^−5 [1]: 84 ± 14%
- T/C in % at a mitomycin C concentration (μM) of 1 × 10^−1 ([2]; mitomycin C alone): 11 ± 7%
- T/C in % at a mitomycin C concentration (μM) of 1 × 10^−2 ([2]; mitomycin C alone): 30± 7%
- T/C in % at a mitomycin C concentration (μM) of 1 × 10^−3 ([2]; mitomycin C alone): 46 ± 8%
- T/C in % at a mitomycin C concentration (μM) of 1 × 10^−4 ([2]; mitomycin C alone): 56 ± 11%
- T/C in % at a mitomycin C concentration (μM) of 1 × 10^−5 ([2]; mitomycin C alone): 58 ± 10%
- T/C in % at a mitomycin C concentration (μM) of 1 × 10^−6 ([2]; mitomycin C alone): 77 ± 13%

SMILES: Nc1ccn([C@@H]2O[C@H](CO)[C@@H](O)C2(F)F)c(=O)n1 [Gemcitabine]
- T/C in % at a gemcitabine concentration (μM) [1]: 85 ± 15%
- T/C in % at a gemcitabine concentration (μM) of 1.0 [1]: 30 ± 6%
- T/C in % at a gemcitabine concentration (μM) of 1 × 10^−1 [1]: 48 ± 8%
- T/C in % at a gemcitabine concentration (μM) of 1 × 10^−2 [1]: 61± 11%
- T/C in % at a gemcitabine concentration (μM) of 1 × 10^−3 [1]: 83 ± 12%
- T/C in % at a gemcitabine concentration (μM) of 1 × 10^−4 [1]: 80 ± 12%
- T/C in % at a gemcitabine concentration (μM) of 1 × 10^−5 [1]: 73 ± 20%
- T/C in % at a gemcitabine concentration (μM) of 1 × 10^−1 ([2]; gemcitabine alone): 30 ± 8%
- T/C in % at a gemcitabine concentration (μM) of 1 × 10^−2 ([2]; gemcitabine alone): 71± 10%
- T/C in % at a gemcitabine concentration (μM) of 1 × 10^−3 ([2]; gemcitabine alone): 77 ± 13%
- T/C in % at a gemcitabine concentration (μM) of 1 × 10^−4 ([2]; gemcitabine alone): 84 ± 12%
- T/C in % at a gemcitabine concentration (μM) of 1 × 10^−5 ([2]; gemcitabine alone): 78 ± 14%
- T/C in % at a gemcitabine concentration (μM) of 1 × 10^−6 ([2]; gemcitabine alone): 89 ± 11%
